Laboratory results published in patent US6008258A (priority 1998, dated 1999).
“Also recorded” adds a separate entry of the source. Structures can show the parent of a compound that is named as a salt. Where two headings read alike, the source gives them in different places.

Legend:
[1] = tested on: rat; assay type: in vivo
[2] = tested on: NMDA receptors; details: cited from earlier work
[3] = tested on: formalin-induced nociceptive behavior; details: pretreatment, literature, cited from earlier work
[4] = tested on: rat; assay: Formalin test (formalin-induced flinching), intrathecal drug
[5] = tested on: rat; assay: Tail-flick test, intrathecal, cumulative dose-response and time course; details: for blockade of antinociceptive effect of l-methadone: naloxone 30 μg/rat + l-methadone 80 μg/rat IT; for antinociceptive (analgesic) effect in tail-flick test: up to cumulative 460 μg/rat
[6] = tested on: mu-type of the opioid receptor; details: Neil; cited from earlier work
[7] = tested on: NMDA receptor in rat cortical membranes; details: rat cortical membranes (Ebert); cited from earlier work
[8] = tested on: NMDA-induced depolarization; details: in vitro (Ebert), cited from earlier work
[9] = tested on: pain syndromes unresponsive to morphine; details: anecdotal case reports; cited from earlier work
[10] = tested on: humans; details: humans (Olsen); cited from earlier work
[11] = tested on: mice; details: mice (Smits); cited from earlier work
[12] = tested on: rat; details: rats (Ingoglia); cited from earlier work
[13] = tested on: NMDA-induced behaviors; assay: Intrathecal NMDA-induced nociceptive behaviors
[14] = tested on: morphine tolerance; details: Elliott et al.; cited from earlier work
[15] = tested on: NMDA-induced nociceptive behaviors; details: Okano et al.; cited from earlier work
[16] = tested on: spinal cord neurons; details: Dickenson et al.; cited from earlier work
[17] = target: NMDA receptor, rat forebrain; details: used to calculate Ki; no footnote a; read-out: Kd (CGS19755), forebrain; cited from earlier work
[18] = tested on: NMDA receptor (noncompetitive MK-801 site), rat forebrain; assay type: binding

CN1CC[C@]23c4c5ccc(O)c4O[C@H]2[C@@H](O)C=C[C@H]3[C@H]1C5 [Morphine]
Morphine ED50 (95% CI) ([1]; SALINE + MORPHINE, Day 2 (so in the source)): 37.6 (28.5-56.7) ug/rat | Morphine ED50 (95% CI) ([1]; SALINE, Day 1): 1.0 (0.5-1.8) ug/rat | binding to NMDA receptors [2]: do not bind to NMDA receptors

CNC1(c2ccccc2Cl)CCCCC1=O (centres unmarked) [Ketamine]
effect on nociceptive responses in formalin test [3]: reduces

C=CCN1CC[C@]23c4c5ccc(O)c4O[C@H]2C(=O)CC[C@@]3(O)[C@H]1C5 [Naloxone]
reversal by naloxone of antinociceptive effect of d-methadone ([4]; naloxone 30 μg/rat + d-methadone 250 μg/rat IT): did not affect; also recorded: not reversed; also recorded: not blocked | effect of naloxone alone on base-line tail-flick latencies / antinociception ([5]; 30 μg/rat spinal): did not affect base-line tail-flick latencies or produce an antinociceptive (analgesic) response | blockade of antinociceptive effect of l-methadone [5]: completely blocked | blockade of antinociceptive effect of l-methadone ([5]; listed as naloxone): completely blocked; also recorded: blocks; also recorded: effectively antagonized | duration of blockade of l-methadone effect ([5]; naloxone 30 μg/rat vs l-methadone 80 μg/rat): at least 75 minutes

CCC(=O)C(CC(C)N(C)C)(c1ccccc1)c1ccccc1 (racemic) [dl-Methadone]
binding to mu-type of the opioid receptor [6]: binds preferentially | affinity for the NMDA receptor [7]: low μm affinity | effect on NMDA-induced depolarization [8]: reduced NMDA-induced depolarizations | effect on NMDA-induced depolarization ([8]; listed as racemic methadone): reduces NMDA-induced depolarization | management of pain syndromes unresponsive to morphine [9]: successful management

CCC(=O)C(C[C@H](C)N(C)C)(c1ccccc1)c1ccccc1 [d-Methadone, (S)-(+)-methadone]
development of morphine tolerance ([1]; rat, in vivo): prevented the development of morphine tolerance | effect of d-methadone alone on morphine ED50 ([1]; rat, in vivo): did not alter | morphine ED50 in d-methadone+morphine group ([1]; rat, in vivo): not significantly increased | analgesic potency vs l-methadone (less potent) [10]: 50 fold | opioid-like locomotor activity [11]: does not produce opioid-like locomotor activity | activity following intraventricular administration [12]: inactive | blockade of an ED99 dose of NMDA ([13]; 250 μg (809 nmol)/rat, NMDA 2.4 nmol/rat): completely blocked | increase of NMDA ED50 ([13]; d-methadone 250 μg/rat): more than 3 fold | effect on phase 2 flinching vs saline ([4]; 250 μg/rat IT, with or without naloxone 30 μg/rat): significantly reduce | decrease in phase 2 flinching ([4]; 320 μg/rat spinal): 68% | effect on number of flinches, phase 1 ([4]; IT 32, 160, 320 μg/rat, 0-10 minutes): did not affect; also recorded: not during phase 1 | effect on flinching behavior, phase 2 ([4]; IT 32, 160, 320 μg/rat, 10-60 minutes): dose-dependently reduces | antinociceptive (analgesic) effect in tail-flick test ([5]; intrathecal): no antinociceptive effects | antinociceptive (analgesic) effect in tail-flick test ([5]; intrathecal, listed as d-methadone): None of the rats that received d-methadone became an analgesic responder; also recorded: no analgesia

C[C@]12N[C@H](Cc3ccccc31)c1ccccc12 [MK-801, (+)-5 methyl-10,11-dihydro-5H-dibenzo[a,d]cyclo-hepten-5, 10-imine hydrogen maleate]
effect on development of tolerance to morphine [14]: attenuates and reverses | effect on nociceptive responses in formalin test [3]: reduces

3-amino-5-phosphonovaleric acid [APV]
effect on nociceptive responses in formalin test [3]: reduces | antagonism of NMDA-induced nociceptive behaviors [15]: antagonized

CCC(=O)C(C[C@@H](C)N(C)C)(c1ccccc1)c1ccccc1 [l-Methadone, (R)-(-)-methadone]
time of peak analgesic effect ([5]; 40 μg/rat spinal, time course study): 15 min | ED50, tail-flick test ([5]; IT, cumulative dose-response): 15.6 ug/rat | antinociceptive (analgesic) effect in tail-flick test ([5]; intrathecal): dose-dependent antinociception | ED50, tail-flick antinociception ([5]; intrathecal, 95% CI 7.0-29.8): 15.6 μg/rat | approximately ED90 antinociceptive dose ([5]; spinal, tail-flick test): ~80 μg/rat

COc1ccc2c(c1)[C@]13CCCC[C@@H]1[C@H](C2)N(C)CC3 [Dextromethorphan]
effect on development of tolerance to morphine [14]: attenuates and reverses | effect on nociceptive responses in formalin test [3]: attenuates nociceptive responses | effect on nociceptive responses in formalin test ([3]; listed as dextromethorphan): reduces | effect on wind up of spinal cord neurons [16]: suppresses

O=C(O)[C@@H]1C[C@H](CP(=O)(O)O)CCN1 [CGS19755]
Kd [17]: 24 nM

CN[C@H](CC(=O)O)C(=O)O [NMDA, N-methyl-D-aspartate]
ED99 dose of NMDA ([13]; intrathecal): 2.4 nmol/rat | NMDA ED50 (95% CI) ([13]; pretreatment with saline or d-methadone 250 μg/rat): 1.3 (1.0-1.6) nmol/rat IT

O=C(O)[C@@H]1C[C@H]2C[C@@H](CP(=O)(O)O)CC[C@H]2CN1 [LY274614]
effect on development of tolerance to morphine [14]: attenuates and reverses

O=C1CC[C@@]2(O)[C@H]3Cc4ccc(O)c5c4[C@@]2(CCN3CC2CC2)[C@H]1O5 [Naltrexone]
displacement of [3H]MK-801 binding [18]: did not displace | Ki ([18]; read-out: [3H]MK-801 Ki, forebrain): > 100000 nM
